Test results taken from patent publication US6218438A, “Copolymer compositions for treating viral infections” (Supratek Pharma, Inc., priority 1999, dated 2001).

How the values were obtained:
[1] = target: T1, HIV-1 reverse transcriptase (p51/p66 RT), RDDP activity (Human immunodeficiency virus type 1 group M subtype B, UniProt P03366); assay: Inhibition of RNA dependent DNA polymerase activity of RT (RT RDDP); format: biochemical
T1 construct: 10 ng of p51/p66 heterodimeric RT per assay were used
Protocol: (§1) BBNH and Fe(III)-BBNH complex at various concentrations were examined for the ability to inhibit RNA dependent and DNA dependent DNA polymerase activities as well as RNAse H activity of HIV-1 reverse transcriptase (RT RDDP, RT DDDP, and RT RNAse H, respectively). To analyze RT RDDP and RT DDDP the following reaction mixture (100 μl total volume) was used: 50 mM Tris-HCl (pH 7.8), 60 mM KCl, 10 mM MgCl2, 10 ng of p51/p66 RT, 0.1-0.5 units of template/primer, and 0.5-25 μM [^3 H]dNTP. Aliquots of the test compounds dissolved in DMSO were added to the reaction mixtures, incubated for 10-20 min. at 37° C. and than quenched with 500 μl of cold 20 mM sodium pyrophosphate in 10% dichloroacetic acid. After 10 min. on ice, the samples were filtered on Whatman 934-AH glass fiber filters and washed with 10% dichloroacetic acid and ethanol, and the radioactivity was determined by liquid scintillation analysis. To analyze RT RNAse H the following reaction mixture (50 μl total volume) was used: 5OmM Tris-HCl (pH 8.0), 60 mM KCl, 8 mM MgCl2, and variable amounts of ([^3 H]rG)-poly(dC). Generally, 10 ng of p51/p66 heterodimeric RT per assay were used. Aliquots of the test compounds dissolved in DMSO were added to the reaction mixtures, incubated for 20 min. at 37° C. and than quenched by placing the tubes on ice followed by the addition of 100 μl of cold 7% perchloric acid. After 10 min. on ice, the samples were centrifuged at 12,000 g for 15 min. 100 μl of the supernatants were carefully removed, and the radioactivity was determined by liquid scintillation analysis.

[2] = target: T2, HIV-1 reverse transcriptase (p51/p66 RT), DDDP activity (Human immunodeficiency virus type 1 group M subtype B, UniProt P03366); assay: Inhibition of DNA dependent DNA polymerase activity of RT (RT DDDP); format: biochemical
T2 construct: 10 ng of p51/p66 heterodimeric RT per assay were used
Protocol: as §1

[3] = tested on: HIV-1 infection of MT2 cells; assay: Inhibition of HIV-1 infection of uninfected MT2 cells; format: cell-based; details: compound in DMSO, 30 min before HIV
Protocol: BBNH and Fe(III)-BBNH complex at various concentrations were examined for the ability to inhibit HIV-1 infection of uninfected MT2 cells. Aliquots of a solution of the compounds in dimethyl sulfoxide were added to uninfected MT2 cells (2×10^5 cells/ml) in RPMI medium containing 10% fetal bovine serum to provide defined final concentrations of test compound. The cells and test compounds were incubated for 30 minutes at 37° C., then inoculated with a suspension of HIV virions. The cells, test compounds and HIV were incubated for 18 h at 37° C., then the cells were collected by centrifugation, washed, and resuspended in RPMI medium containing 10% fetal bovine serum and containing the same concentration of test compound as initially employed. The cells were then cultured at 37° C. (with culture medium changes as required). HIV infection was assessed by microscopic examination of HIV-induced cytopathicity (syncytium) and/or by analysis of HIV p24 antigen levels in the culture supernatants.

[4] = Water solubility of Fe(III)BBNH in various Pluronic solutions; format: physicochemical; details: 180 min
Protocol: The samples of Fe(III)BBNH (1 mg of each) were placed in 1 ml of various water solutions of Pluronics. The samples were intensively agitated during three hours at room temperature using a rotator. The samples were then centrifuged at 10,000g for 10 min. The supernatants (500 μl each) were separated and then dried using a speed-vac centrifuge. Each sample was dissolved in 500 μl DMSO and aliquots (50 μl each) were transferred to 96-well plate. The optical densities were determined at λ400 nm using a microplate. The test compound concentrations in the samples were then determined by using the calibration shown in Example 4A. Each concentration of Fe(III)BBNH was analyzed in triplicates. Each concentration of Fe306 was measured in triplicates.

[5] = target: HIV-1 RT (Human immunodeficiency virus type 1 BH10, UniProt P03366); assay: In vitro inhibition of HIV-1 RT enzymatic activities (RDDP, RNase H, DDDP); format: biochemical
[6] = tested on: cells; assay: Cytotoxicity (general statement); format: cell-based
[7] = tested on: HIV-1 replication in cells; assay: Inhibition of HIV-1 replication in infected cells (general statement); format: cell-based

Structure (SMILES): CC(C)(C)c1ccc(C(=O)NN=Cc2c(O)ccc3ccccc23)cc1.C[O-].[Cl-].[Cl-].[Fe+3] [Fe(III)-BBNH]
- IC50 [1]: 400 ± 80 nM
- Ratio BBNH/Fe(III)-BBNH (IC50), RT RDDP [1]: 4.8
- IC50 [2]: 900 ± 300 nM
- Ratio BBNH/Fe(III)-BBNH (IC50), RT DDDP [2]: 13.5
- IC50 [3]: > 50000 nM
- Solubility of Fe(III)BBNH ([4]; Pluronic F87 (2% w/v) in water): 992.5 µg/mL
- Solubility of Fe(III)BBNH ([4]; Pluronic F108 (2% w/v) in water): 86.5 µg/mL
- Solubility of Fe(III)BBNH ([4]; Pluronic F127 (2% w/v) in water): 113.6 µg/mL
- Solubility of Fe(III)BBNH ([4]; Pluronic L44 (2% w/v) in water): 986.8 µg/mL
- Solubility of Fe(III)BBNH ([4]; Pluronic L61 (1% w/v) in water): 3.5 µg/mL
- Solubility of Fe(III)BBNH ([4]; Pluronic L64 (2% w/v) in water): 996.6 µg/mL
- Solubility of Fe(III)BBNH ([4]; Pluronic L81 (2% w/v) in water): 175.3 µg/mL
- Solubility of Fe(III)BBNH ([4]; Pluronic P84 (1% w/v) in water): 987.2 µg/mL
- Solubility of Fe(III)BBNH ([4]; Pluronic P85 (1% w/v) in water): 998.3 µg/mL
- Solubility of Fe(III)BBNH ([4]; Pluronic P123 (2% w/v) in water): 125.7 µg/mL
- inhibitory activity against RT in vitro compared to the parent uncomplexed BBNH [5]: improved inhibitory activity compared to the parent uncomplexed BBNH
- cytotoxicity [6]: virtually no cytotoxicity
- antiviral activity against HIV-1 replication in cells [7]: no antiviral activity against HIV-1 replication in cells
- inhibition of HIV-1 replication in cells, water-organic formulations ([7]; water-organic formulations): very low activity
